Test results published in patent US20160038526A1, “TREATMENT OF PROSTATE CANCER” (THOMAS JEFFERSON UNIVERSITY, priority 2012, published 2016).

Experiments:
[1] = system: human clinical prostate cancer explants; assay: Clinical prostate cancers ex vivo in explant organ cultures: viability of epithelium; format: cell-based; settings: eight patients, 7 days, N6BAP 5, 10, 25, 50 and 100 μM
Description: For organ cultures, prostate cancer specimens were obtained during surgery from eight patients with localized or locally advanced prostate cancer undergoing radical prostatectomy and bilateral iliac lymphadenectomy. The specimens are identified in Table 1.
The specimens comprised de-identified excess tissue obtained after the completion of pathology diagnosis. A zero-sample prior to organ culture was formalin-fixed for each individual prostate cancer for the analysis of the nuclear Stat5a/b status. The prostate organ cultures were performed as described earlier (Ahonen et al., Endocrinology (2002), 143:228-238). Briefly, prostate cancer tissue was cut into approximately 1 mm^3 pieces in a plain culture medium and transferred onto lens papers lying on stainless steel grids in petri dishes. […] Tissue explants were cultured in a medium containing the N6BAP or control compound C5 at indicated concentrations (C5: […]; N6BAP: 5, 10, 25, 50 and 100 μM) 7 days, after which the explants were fixed in formalin and analyzed for Stat5a/b activation and viability of prostate cancer epithelial compartment. Viability of the epithelial cells in the prostate cancer explants at the end of the cultures were scored by counting the viable epithelial cells per explant.

[2] = biological target: T1, Stat5a (Homo sapiens, UniProt P42229); assay: Stat5 dimerization assay (FLAG-/MYC-tagged Stat5a co-immunoprecipitation) in PC-3 cells; format: cell-based; design: expressed in transfected cells; host or cells: PC-3; settings: 2 hours pretreatment, hPrl 10 nM 30 minutes
T1 sequence (P42229 1-794): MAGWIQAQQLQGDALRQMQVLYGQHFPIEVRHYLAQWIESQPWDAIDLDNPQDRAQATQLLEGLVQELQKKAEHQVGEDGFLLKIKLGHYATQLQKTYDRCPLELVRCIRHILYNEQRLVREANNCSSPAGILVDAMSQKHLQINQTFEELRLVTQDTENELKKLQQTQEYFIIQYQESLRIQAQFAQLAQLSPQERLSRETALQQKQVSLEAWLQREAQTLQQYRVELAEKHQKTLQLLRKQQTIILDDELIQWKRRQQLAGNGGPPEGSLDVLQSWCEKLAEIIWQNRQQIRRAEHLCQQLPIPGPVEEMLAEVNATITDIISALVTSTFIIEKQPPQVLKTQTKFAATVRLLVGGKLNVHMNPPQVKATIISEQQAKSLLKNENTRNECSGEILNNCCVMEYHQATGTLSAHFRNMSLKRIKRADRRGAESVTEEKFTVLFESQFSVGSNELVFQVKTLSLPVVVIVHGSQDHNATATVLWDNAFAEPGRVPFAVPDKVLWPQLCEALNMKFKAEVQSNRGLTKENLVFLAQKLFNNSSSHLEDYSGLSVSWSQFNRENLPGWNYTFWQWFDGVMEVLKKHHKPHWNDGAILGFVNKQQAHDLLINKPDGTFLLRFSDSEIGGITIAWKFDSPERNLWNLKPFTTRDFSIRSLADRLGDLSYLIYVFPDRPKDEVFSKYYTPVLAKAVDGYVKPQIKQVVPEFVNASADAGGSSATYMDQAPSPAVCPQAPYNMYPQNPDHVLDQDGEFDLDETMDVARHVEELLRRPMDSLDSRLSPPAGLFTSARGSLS
Protocol: FLAG-tagged Stat5a and MYC-tagged Stat5a were generated as follows. Plasmid pCMV3-FLAG-Stat5a, pCMV3-MYC-Stat5a and pPrlR were co-transfected using FuGENE6 (Roche) into PC-3 cells (2 μg of each plasmid per 1×10^7 cells). The cells were starved for 20 hours, pretreated with N6BAP for 2 hours, then stimulated with hPrl (10 nM) in RPMI 1640 without serum for 30 minutes. The cell lysates were immunoprecipitated with 25 μl anti-FLAG M2 […] affinity gel (2 μg/ml, Sigma), anti-MYC pAb (1 μg/ml, Upstate) or normal rabbit serum (NRS). The primary antibodies were used in the immunoblottings at the following concentrations: anti-FLAG pAb (1:1000; Stratagene), anti-MYC mAb (1:1000; Sigma), anti-Stat5a/b mAb (1:250) (Transduction Laboratories) detected by horseradish peroxidase-conjugated secondary antibodies.
Lanes 1, 2, 4, 6, 8, 10, 12, 14 and 16 represent cells stimulated with human prolactin (Prl) for 30 minutes which induces dimerization of Stat5. Two hours prior to Prl-stimulation, the cells had been treated with DMSO (lanes 1-4), the control compound C5 (lanes 5 and 6) or N6BAP (lanes 7-16) to test whether the Stat5a/b-inhibitor compound, N6BAP, would be able to inhibit dimerization of Stat5. […] It should be noted the drug effect in this study was not due to cell apoptosis induction, as the treatment time was only 2 hours. […]

## O=P(O)(O)OC[C@H]1O[C@@H](n2cnc3c(NCc4ccccc4)ncnc32)[C@H](O)[C@@H]1O [N6BAP, N^6-benzyladenosine-5′-monophosphate]
[1]
  viability of prostate cancer epithelium in explant organ cultures: induced extensive death of prostate cancer epithelium
[2]
  dimerization of Stat5a: effectively inhibited Stat5a dimerization
